“And” between values parts separate entries of the source, which are not always exact repeats. Equal values may be shown once. Read-outs that look alike come from different tables or passages of the source.
Tests used:
Vero E6 cells = conditions: for Viability of Uninfected Vero E6 Cells (A540): 4 days, individual replicates; for Viability of Uninfected Vero E6 Cells (% Vehicle): 4-day treatment
[1] = system: SARS-CoV-2 (MEX-BC2/2020); experiment: Live SARS-CoV-2 CPE-based antiviral assay in Vero E6 cells (neutral red uptake); assay type: cell-based
[2] = system: influenza A/California/07/2009 (H1N1); experiment: microbe, parasite or virus in culture; assay type: cell-based, Influenza A Virus
gp120 = conditions: by binding gp120; cited from earlier work
Ebola virus = conditions: cited from earlier work
glycoprotein B-2 (gpB-2) = glycoprotein B-2 (gpB-2) (Human herpesvirus 2, UniProt P08666); conditions: cited from earlier work
Sequence of glycoprotein B-2 (gpB-2) (P08666 23-904 limits assumed): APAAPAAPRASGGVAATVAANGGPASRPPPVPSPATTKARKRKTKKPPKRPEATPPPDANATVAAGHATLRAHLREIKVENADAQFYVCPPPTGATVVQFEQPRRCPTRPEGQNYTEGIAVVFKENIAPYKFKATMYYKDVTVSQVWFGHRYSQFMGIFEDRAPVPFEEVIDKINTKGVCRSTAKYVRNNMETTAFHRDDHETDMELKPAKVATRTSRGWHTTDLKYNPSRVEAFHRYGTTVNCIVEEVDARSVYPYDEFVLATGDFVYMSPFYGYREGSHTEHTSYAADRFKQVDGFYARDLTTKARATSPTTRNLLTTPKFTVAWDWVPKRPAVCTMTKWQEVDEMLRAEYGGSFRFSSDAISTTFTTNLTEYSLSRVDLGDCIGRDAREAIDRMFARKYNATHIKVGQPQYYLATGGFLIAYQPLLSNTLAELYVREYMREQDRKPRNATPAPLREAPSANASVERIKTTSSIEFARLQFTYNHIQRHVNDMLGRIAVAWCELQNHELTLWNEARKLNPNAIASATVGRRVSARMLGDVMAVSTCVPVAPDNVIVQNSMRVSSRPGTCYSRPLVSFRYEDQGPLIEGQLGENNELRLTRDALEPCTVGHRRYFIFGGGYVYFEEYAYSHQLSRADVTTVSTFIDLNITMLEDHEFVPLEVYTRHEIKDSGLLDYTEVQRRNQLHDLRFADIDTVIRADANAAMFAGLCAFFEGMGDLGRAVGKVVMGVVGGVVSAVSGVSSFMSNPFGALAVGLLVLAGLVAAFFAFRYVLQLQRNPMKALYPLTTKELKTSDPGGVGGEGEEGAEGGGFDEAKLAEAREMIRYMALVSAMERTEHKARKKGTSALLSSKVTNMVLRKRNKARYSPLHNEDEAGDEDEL

CC[C@H]1CN2CCc3cc(OC)c(OC)cc3[C@@H]2C[C@@H]1C[C@H]1NCCc2cc(OC)c(OC)cc21 [Emetine]
inhibition of cell viability (A549 cells; 10 μM): greater than 85%
Viability in A549 cells (% Vehicle) (A549 cells; 10 μM, cytotoxic control): 14.0 ± 4.6%
Viability in A549 Cells (A490) (A549 cells; 10 μM, cytotoxic control, 48 hours, individual replicates): 0.236 and 0.179

N#C[C@@]1(c2ccc3c(N)ncnn23)O[C@H](CO)[C@@H](O)[C@H]1O [GS-441524]
Viability of Uninfected Vero E6 Cells (A540) (Vero E6 cells; 1 μM): 1.404 and 1.753
loss of viability in uninfected cells (Vero E6 cells; 10 μM): no significant loss of viability
Viability of Uninfected Vero E6 Cells (A540) (Vero E6 cells; 10 μM): 1.616
Inhibition of SARS-CoV-2 (MEX-BC2/2020) Virus-Induced CPE (%) ([1]; 0.03 μM, single data point): −7.0%
Inhibition of SARS-CoV-2 (MEX-BC2/2020) Virus-Induced CPE (%) ([1]; 0.25 μM, single data point): 51.9%
Inhibition of SARS-CoV-2 (MEX-BC2/2020) Virus-Induced CPE (%) ([1]; 0.74 μM, single data point): 89.7%
prevention of the virus-induced CPE ([1]; 1 μM): completely prevented
Inhibition of SARS-CoV-2 (MEX-BC2/2020) Virus-Induced CPE (%) ([1]; 1 μM, positive control wells): 112.3 ± 24.4%
Inhibition of SARS-CoV-2 (MEX-BC2/2020) Virus-Induced CPE (%) ([1]; 2.2 μM, single data point): 89.9%
Inhibition of SARS-CoV-2 (MEX-BC2/2020) Virus-Induced CPE (%) ([1]; 6.7 μM, single data point): 96.3%
Inhibition of SARS-CoV-2 (MEX-BC2/2020) Virus-Induced CPE (%) ([1]; 10 μM, positive control wells): 117.2 ± 5.4%
prevention of the virus-induced CPE of the infected cells ([1]; control inhibitor, concentration not given): prevented completely
IC50 ([1]; control inhibitor, single data points, Vero E6, 96 hours): 170 nM

CCN(CC)CCCC(C)Nc1ccnc2cc(Cl)ccc12 (centres unmarked) [CQ, chloroquine diphosphate]
Viability of Uninfected Vero E6 Cells (% Vehicle) (Vero E6 cells; 5 μM): 75.9 ± 2.6%
Viability of Uninfected Vero E6 Cells (A540) (Vero E6 cells; 5 μM): 1.206 and 1.262
Absorbance (540 nm), SARS-CoV-2-induced CPE [1]: 0.985 and 1.011
Inhibition of SARS-CoV-2 (MEX-BC2/2020) Virus-Induced CPE (%) ([1]; 5 μM, positive control wells): 61.8 ± 2.5%

O=C1c2c(O)c(=O)ccn2N([C@@H]2c3ccccc3SCc3c2ccc(F)c3F)[C@@H]2COCCN12 [Baloxavir, baloxavir]
IAV Infectivity in A549 Cells (% Vehicle) ([2]; 0.01 nM, single data point): 95.3%
IVA Infectivity in A549 Cells (Absorbance 490 nm) ([2]; 0.01 nM, single data point): 1.064
IAV Infectivity in A549 Cells (% Vehicle) ([2]; 0.06 nM, single data point): 86.9%
IVA Infectivity in A549 Cells (Absorbance 490 nm) ([2]; 0.06 nM, single data point): 1.000
IAV Infectivity in A549 Cells (% Vehicle) ([2]; 0.32 nM, single data point): 64.4%
IVA Infectivity in A549 Cells (Absorbance 490 nm) ([2]; 0.32 nM, single data point): 0.828
IAV Infectivity in A549 Cells (% Vehicle) ([2]; 1.6 nM, single data point): 17.7%
IVA Infectivity in A549 Cells (Absorbance 490 nm) ([2]; 1.6 nM, single data point): 0.471
IAV Infectivity in A549 Cells (% Vehicle) ([2]; 8.0 nM, single data point): 6.1%
IVA Infectivity in A549 Cells (Absorbance 490 nm) ([2]; 8.0 nM, single data point): 0.383
IAV Infectivity in A549 Cells (% Vehicle) ([2]; 40 nM, single data point): 5.6%
IVA Infectivity in A549 Cells (Absorbance 490 nm) ([2]; 40 nM, single data point): 0.379
IAV Infectivity in A549 Cells (% Vehicle) ([2]; 0.2 μM, positive control): 6.0%
IVA Infectivity in A549 Cells (Absorbance 490 nm) ([2]; 0.2 μM, positive control, 48 hours, individual replicates, listed as BLX): 0.383 and 0.391 and 0.374
IAV Infectivity in A549 Cells (% Vehicle) ([2]; 200 nM, single data point): 6.0%
IVA Infectivity in A549 Cells (Absorbance 490 nm) ([2]; 200 nM, single data point): 0.382
IAV Infectivity in A549 Cells (% Vehicle) ([2]; 1,000 nM, single data point): 10.8%
IVA Infectivity in A549 Cells (Absorbance 490 nm) ([2]; 1,000 nM, single data point): 0.419
IC50 ([2]; Influenza A virus, H1N1, control antiviral, single data points, A549 cells, 48 hours, read-out: IC50, IAV Antiviral Assay): 0.49 nM
block of infection ([2]; at some concentrations tested): over 99%
Viability in A549 cells (% Vehicle) (A549 cells; 0.2 μM): 102.0 ± 2.4%

C[S+](C)[O-] [DMSO, Dimethyl sulfoxide]
Viability of Uninfected Vero E6 Cells (% Vehicle) (Vero E6 cells; 10%, cytotoxic agent control): −0.2 ± 0.0%
Viability of Uninfected Vero E6 Cells (A540) (Vero E6 cells; 10%, cytotoxic agent control): 0.074 and 0.073
block of cell viability (Vero E6 cells; tested at 10%): more than 99%

polyphenylene carboxymethylene [PPCM]
cell-to-cell transmission and primary infection by multiple clades of HIV-1 (gp120): prevents
inhibition of Ebola virus (Ebola virus): inhibited
binding to gpB-2, which prevents herpes attachment and fusion (glycoprotein B-2 (gpB-2)): binds

From patent US20240000828A1 (priority 2020, published 2024)
